Results from ChEMBL document CHEMBL1136540, “Discovery of selective phosphonamide-based inhibitors of tumor necrosis factor-alpha converting enzyme (TACE)” (Bioorg Med Chem Lett, 2003).

Legend:
[1] = target: T1, Disintegrin and metalloproteinase domain-containing protein 17 (Homo sapiens, UniProt P78536); assay: Inhibition of recombinant human tumor necrosis factor-alpha converting enzyme
Stromelysin-1 [2] = target: T2, Stromelysin-1 (Homo sapiens, UniProt P08254); assay: Inhibition of recombinant human Matrix metalloprotease-3
Target sequence in this assay (P08254 whole entry): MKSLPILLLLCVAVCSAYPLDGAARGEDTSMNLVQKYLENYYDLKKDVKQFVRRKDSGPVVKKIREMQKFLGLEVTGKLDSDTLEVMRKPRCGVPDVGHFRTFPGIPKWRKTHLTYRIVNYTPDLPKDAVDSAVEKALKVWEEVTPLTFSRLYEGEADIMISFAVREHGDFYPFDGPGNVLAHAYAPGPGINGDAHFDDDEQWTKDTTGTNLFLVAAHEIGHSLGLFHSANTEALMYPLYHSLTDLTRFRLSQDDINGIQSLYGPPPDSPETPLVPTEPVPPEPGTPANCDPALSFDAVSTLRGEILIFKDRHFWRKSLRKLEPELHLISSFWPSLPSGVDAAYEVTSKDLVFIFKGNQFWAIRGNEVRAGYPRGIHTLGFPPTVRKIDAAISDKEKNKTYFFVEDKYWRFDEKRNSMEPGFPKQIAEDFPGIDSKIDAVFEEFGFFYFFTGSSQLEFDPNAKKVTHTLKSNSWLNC

[3] = target: T3, Matrix metalloproteinase-9 (Homo sapiens, UniProt P14780); assay: Inhibition of recombinant human Matrix metalloprotease-9
T3 sequence (P14780 whole entry): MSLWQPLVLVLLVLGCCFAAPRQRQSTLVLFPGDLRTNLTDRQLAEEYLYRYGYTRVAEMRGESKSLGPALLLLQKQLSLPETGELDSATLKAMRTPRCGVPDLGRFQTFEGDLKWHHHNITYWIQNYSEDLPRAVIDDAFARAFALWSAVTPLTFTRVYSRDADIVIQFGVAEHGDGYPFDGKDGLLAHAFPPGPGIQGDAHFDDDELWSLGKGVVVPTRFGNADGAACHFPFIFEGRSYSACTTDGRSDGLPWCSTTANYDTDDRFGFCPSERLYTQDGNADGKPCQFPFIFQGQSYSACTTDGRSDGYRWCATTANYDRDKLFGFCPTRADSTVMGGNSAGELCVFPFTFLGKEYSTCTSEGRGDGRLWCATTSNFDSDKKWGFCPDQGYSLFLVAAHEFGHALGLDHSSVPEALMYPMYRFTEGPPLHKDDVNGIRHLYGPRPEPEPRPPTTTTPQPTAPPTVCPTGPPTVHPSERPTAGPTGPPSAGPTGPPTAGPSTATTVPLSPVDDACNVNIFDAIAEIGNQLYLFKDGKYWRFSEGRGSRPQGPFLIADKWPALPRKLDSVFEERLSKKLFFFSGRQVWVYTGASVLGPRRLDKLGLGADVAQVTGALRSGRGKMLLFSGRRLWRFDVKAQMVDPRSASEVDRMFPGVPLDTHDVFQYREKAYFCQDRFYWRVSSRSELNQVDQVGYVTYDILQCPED

Interstitial collagenase [4] = target: T4, Interstitial collagenase (Homo sapiens, UniProt P03956); assay: Inhibition of recombinant human Matrix metalloprotease-1
T4 sequence (P03956 whole entry): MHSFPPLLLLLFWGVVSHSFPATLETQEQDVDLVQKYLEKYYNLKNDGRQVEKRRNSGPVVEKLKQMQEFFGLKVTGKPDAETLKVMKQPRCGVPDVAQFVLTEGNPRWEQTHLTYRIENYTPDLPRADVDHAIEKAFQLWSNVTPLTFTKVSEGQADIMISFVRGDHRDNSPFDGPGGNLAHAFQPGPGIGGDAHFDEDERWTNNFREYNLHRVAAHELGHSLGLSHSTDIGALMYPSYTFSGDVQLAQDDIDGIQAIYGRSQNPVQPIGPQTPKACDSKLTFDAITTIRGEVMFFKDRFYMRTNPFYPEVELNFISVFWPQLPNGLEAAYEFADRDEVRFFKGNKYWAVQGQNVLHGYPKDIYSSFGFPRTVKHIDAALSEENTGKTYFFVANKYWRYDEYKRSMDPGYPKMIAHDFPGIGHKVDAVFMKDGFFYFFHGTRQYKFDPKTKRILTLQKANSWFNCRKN

Stromelysin-1 [5] = target: T2, Stromelysin-1; assay: Inhibition of recombinant human Matrix metalloprotease-3 at 1000 nM
Target sequence in this assay (P08254 100-477 limits assumed): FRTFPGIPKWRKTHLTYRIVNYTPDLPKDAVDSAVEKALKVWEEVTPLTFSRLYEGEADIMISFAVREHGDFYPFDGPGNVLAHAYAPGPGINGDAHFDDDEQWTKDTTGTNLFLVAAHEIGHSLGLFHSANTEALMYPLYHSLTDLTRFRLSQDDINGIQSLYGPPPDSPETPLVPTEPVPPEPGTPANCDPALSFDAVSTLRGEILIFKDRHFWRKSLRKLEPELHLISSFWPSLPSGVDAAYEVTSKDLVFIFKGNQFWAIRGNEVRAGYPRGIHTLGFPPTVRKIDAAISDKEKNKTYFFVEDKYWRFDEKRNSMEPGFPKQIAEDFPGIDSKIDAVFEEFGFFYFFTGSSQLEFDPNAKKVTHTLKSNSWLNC

[6] = target: T5, Interstitial collagenase (Homo sapiens) (UniProt P03956); assay: Inhibition of recombinant human matrix metalloprotease-1 at 1000 nM
T5 sequence (whole entry): T4 sequence (P03956 whole entry)

[7] = target: T3, Matrix metalloproteinase-9; conditions: 1000 nM
Description: Inhibition of recombinant human Matrix metalloprotease-9 at 1000 nM

Interstitial collagenase [8] = target: T4, Interstitial collagenase; assay: Inhibition of recombinant human matrix metalloprotease-1
[9] = target: T1, Disintegrin and metalloproteinase domain-containing protein 17; conditions: 1000 nM
Description: Inhibition of recombinant human TACE at 1000 nM

[10] = target: T5, Interstitial collagenase (Homo sapiens); assay: Inhibition of recombinant human Matrix metalloprotease-1 at 1000 nM

T1 sequence (P78536 whole entry, the tested form may be a part): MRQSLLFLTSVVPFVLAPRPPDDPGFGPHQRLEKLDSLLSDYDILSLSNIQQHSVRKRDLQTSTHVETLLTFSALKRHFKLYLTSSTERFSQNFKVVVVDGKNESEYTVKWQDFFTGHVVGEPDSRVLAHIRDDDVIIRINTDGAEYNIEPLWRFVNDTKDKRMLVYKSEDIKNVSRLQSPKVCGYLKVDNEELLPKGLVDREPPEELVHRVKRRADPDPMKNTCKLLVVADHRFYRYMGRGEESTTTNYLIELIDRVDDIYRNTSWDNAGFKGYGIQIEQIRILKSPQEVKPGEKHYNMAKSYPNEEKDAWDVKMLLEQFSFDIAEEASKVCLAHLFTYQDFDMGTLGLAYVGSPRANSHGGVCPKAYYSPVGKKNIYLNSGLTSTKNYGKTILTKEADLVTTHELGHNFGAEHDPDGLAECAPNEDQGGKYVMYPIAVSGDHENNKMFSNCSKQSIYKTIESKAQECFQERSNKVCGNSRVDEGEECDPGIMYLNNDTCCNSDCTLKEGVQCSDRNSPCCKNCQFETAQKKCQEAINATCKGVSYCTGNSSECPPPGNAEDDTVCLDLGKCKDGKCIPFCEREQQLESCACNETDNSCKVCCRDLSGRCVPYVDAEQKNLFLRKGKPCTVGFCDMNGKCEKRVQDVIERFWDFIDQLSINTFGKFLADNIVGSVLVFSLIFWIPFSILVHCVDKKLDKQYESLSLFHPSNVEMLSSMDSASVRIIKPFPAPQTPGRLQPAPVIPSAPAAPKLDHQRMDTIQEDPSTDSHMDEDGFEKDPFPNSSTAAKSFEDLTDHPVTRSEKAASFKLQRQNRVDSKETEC

`CCOP(=O)(c1ccc(OC)cc1)N1Cc2ccccc2C[C@@H]1C(=O)NO` (single isomer, unassigned) was tested, and the Ki [1] was 7.15 nM.
In the case of `CCOP(=O)(N[C@H](CC(C)C)C(=O)NO)c1ccc(OC)cc1` (stereo partly specified), the Ki (Stromelysin-1 [2]) is reported as 69.8 nM, the Ki [3] is reported as 165 nM and the Ki [1] is reported as 5.06 nM. For the same compound, the Ki (Interstitial collagenase [4]) was 196 nM.
Compound `CCOP(=O)(N[C@@H](CCC(=O)NCCc1ccccc1)C(=O)NO)c1ccc(OC)cc1` (stereo partly specified) has an inhibition (Stromelysin-1 [5]) of 47%, an inhibition [6] of 27% and a Ki [1] of 10 nM. It also gave an inhibition [7] of 24%.
Work on `CCOP(=O)(N[C@H](CCC(=O)NCCc1ccccc1)C(=O)NO)c1ccc(OC)cc1` (stereo partly specified) yielded a Ki (Stromelysin-1 [2]) of 7.29 nM, a Ki [3] of 23.7 nM and a Ki [1] of 27.6 nM. It also gave a Ki (Interstitial collagenase [8]) of 40.4 nM.
In the case of `CCOP(=O)(N[C@@H](CC(C)C)C(=O)NO)c1ccc(OC)cc1` (stereo partly specified), the inhibition (Stromelysin-1 [5]) is reported as 17%, the inhibition [6] is reported as 10% and the Ki [1] is reported as 76.4 nM. It also gave an inhibition [7] of 17%.
For `CCOP(=O)(c1ccc(OC)cc1)N1Cc2ccccc2C[C@H]1C(=O)NO` (single isomer, unassigned), the inhibition (Stromelysin-1 [5]) was 9%, the inhibition [9] was 41% and the inhibition [10] was 26%. It also gave an inhibition [7] of 18%.
